How the values were obtained:
Acetylcholinesterase [1] = target: Acetylcholinesterase (Homo sapiens, UniProt P22303)
Description: Inhibition of Acetylcholinesterase in human red blood cell

Acetylcholinesterase [2] = target: T1, Acetylcholinesterase (Rattus norvegicus, UniProt P37136)
T1 sequence (P37136 whole entry): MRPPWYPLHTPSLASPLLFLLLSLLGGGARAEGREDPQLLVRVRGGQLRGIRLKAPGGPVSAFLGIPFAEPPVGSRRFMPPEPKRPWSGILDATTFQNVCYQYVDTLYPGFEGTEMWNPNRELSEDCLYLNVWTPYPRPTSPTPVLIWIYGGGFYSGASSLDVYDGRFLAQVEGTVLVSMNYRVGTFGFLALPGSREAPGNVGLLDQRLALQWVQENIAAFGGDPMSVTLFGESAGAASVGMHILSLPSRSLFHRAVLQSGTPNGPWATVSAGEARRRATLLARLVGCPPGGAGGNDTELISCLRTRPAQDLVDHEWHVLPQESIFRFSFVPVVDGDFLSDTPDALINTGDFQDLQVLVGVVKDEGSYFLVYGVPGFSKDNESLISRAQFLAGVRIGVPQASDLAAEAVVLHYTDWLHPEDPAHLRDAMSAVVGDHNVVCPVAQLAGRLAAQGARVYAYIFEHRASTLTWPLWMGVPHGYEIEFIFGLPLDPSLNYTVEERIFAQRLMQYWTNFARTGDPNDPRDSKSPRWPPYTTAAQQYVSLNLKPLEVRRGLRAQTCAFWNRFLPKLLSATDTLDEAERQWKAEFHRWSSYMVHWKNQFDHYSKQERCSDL
Description: Inhibition of Acetylcholinesterase in rat red blood cell

Acetylcholinesterase [3] = target: T2, Acetylcholinesterase (Mus musculus, UniProt P21836)
T2 sequence (P21836 whole entry): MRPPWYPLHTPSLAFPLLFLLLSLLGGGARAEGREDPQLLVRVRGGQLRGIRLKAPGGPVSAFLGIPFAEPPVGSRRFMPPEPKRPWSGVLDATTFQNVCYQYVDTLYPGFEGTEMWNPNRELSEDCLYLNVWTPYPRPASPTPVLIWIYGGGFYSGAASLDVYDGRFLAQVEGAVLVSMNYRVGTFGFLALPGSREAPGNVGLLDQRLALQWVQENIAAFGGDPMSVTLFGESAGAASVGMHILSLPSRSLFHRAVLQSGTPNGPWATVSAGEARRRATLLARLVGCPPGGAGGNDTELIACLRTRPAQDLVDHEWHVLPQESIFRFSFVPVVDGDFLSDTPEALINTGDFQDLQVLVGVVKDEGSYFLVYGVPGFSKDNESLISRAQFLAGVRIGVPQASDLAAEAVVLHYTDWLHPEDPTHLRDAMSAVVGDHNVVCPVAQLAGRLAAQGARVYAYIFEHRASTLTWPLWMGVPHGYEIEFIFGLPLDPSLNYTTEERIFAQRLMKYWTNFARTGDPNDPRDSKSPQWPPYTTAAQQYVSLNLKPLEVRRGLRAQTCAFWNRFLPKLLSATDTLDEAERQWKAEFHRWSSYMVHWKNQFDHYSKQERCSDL
Description: Inhibition of Acetylcholinesterase in mouse red blood cell

Acetylcholinesterase (Homo sapiens, UniProt P22303), sequence (P22303 whole entry): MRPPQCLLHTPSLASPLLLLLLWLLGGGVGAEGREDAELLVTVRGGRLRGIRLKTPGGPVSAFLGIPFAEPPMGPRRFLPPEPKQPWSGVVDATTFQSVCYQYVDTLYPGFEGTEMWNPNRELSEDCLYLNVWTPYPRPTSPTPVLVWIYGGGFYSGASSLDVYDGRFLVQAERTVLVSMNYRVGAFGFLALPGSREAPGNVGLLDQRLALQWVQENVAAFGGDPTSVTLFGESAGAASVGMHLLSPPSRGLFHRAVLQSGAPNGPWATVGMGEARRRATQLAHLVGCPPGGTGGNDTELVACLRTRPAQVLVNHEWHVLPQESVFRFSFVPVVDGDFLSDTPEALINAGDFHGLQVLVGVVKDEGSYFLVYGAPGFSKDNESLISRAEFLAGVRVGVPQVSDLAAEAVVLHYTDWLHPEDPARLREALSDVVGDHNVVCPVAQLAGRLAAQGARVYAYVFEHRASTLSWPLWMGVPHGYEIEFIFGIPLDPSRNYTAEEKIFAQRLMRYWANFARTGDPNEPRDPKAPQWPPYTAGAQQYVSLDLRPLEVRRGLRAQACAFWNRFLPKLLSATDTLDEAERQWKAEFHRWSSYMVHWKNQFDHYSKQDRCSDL

SMILES: Nc1c2c(nc3ccccc13)CCC(O)C2 (stereo not given)
- IC50 (Acetylcholinesterase [1]): 1610 nM
- IC50 (Acetylcholinesterase [2]): 1770 nM
- IC50 (Acetylcholinesterase [3]): 4820 nM

SMILES: Nc1c2c(nc3ccccc13)C(O)CCC2 (stereo not given)
- IC50 (Acetylcholinesterase [1]): 521 nM
- IC50 (Acetylcholinesterase [2]): 411 nM
- IC50 (Acetylcholinesterase [3]): 1430 nM

SMILES: Nc1c2c(nc3ccccc13)CC(O)CC2 (stereo not given) [7-HYDROXYTACRINE]
- IC50 (Acetylcholinesterase [1]): 623 nM
- IC50 (Acetylcholinesterase [2]): 483 nM
- IC50 (Acetylcholinesterase [3]): 1210 nM

SMILES: Nc1c2c(nc3ccccc13)CCCC2O (stereo not given) [VELNACRINE]
- IC50 (Acetylcholinesterase [2]): 361 nM
